US9102648B1, “Bioavailable diacylhydrazine ligands for modulating the expression of exogenous genes via an ecdysone receptor complex” (Intrexon Corporation, priority 2003, dated 2015)
pEC50: −log10 of the molar value. Like-named read-outs stand apart in the source and are kept apart here.

Target: GAL4 DBD (1-147)-CfEcR(DEF)/VP16AD-βRXREF-LmUSPEF (Choristoneura fumiferana, UniProt O77240)
Assay: cell-based
Details: for Fold Induction, 27-63 Assay, 3.3 uM: 3.3 uM ligand; for Fold Induction, 27-63 Assay, 3.3 uM / Fold Induction, 27-63 Assay, 33 uM: RLU ligand treated / RLU DMSO treated cells; for Fold Induction, 27-63 Assay, 33 uM: 33 uM ligand; for 27-63 assay Rel Max FI: maximum fold induction at any concentration relative to that of GS-E ligand, CHO 27-63 cells; for fold induction at 33 µM: read-out: Fold Induction, 27-63 Assay, 33 uM
Text: GAL4 DBD (1-147)-CfEcR(DEF)/VP16AD-βRXREF-LmUSPEF:
The wild-type D, E, and F domains from spruce budworm Choristoneura fumiferana EcR (“CfEcR-DEF”; SEQ ID NO: 1) were fused to a GAL4 DNA binding domain (“Gal4DBD1-147”; SEQ ID NO: 2) and placed under the control of a phosphoglycerate kinase promoter (“PGK”; SEQ ID NO: 3). Helices 1 through 8 of the EF domains from Homo sapiens RXRβ (“HsRXRβ-EF”; nucleotides 1-465 of SEQ ID NO: 4) and helices 9 through 12 of the EF domains of Locusta migratoria Ultraspiracle Protein (“LmUSP-EF”; nucleotides 403-630 of SEQ ID NO: 5) were fused to the transactivation domain from VP16 (“VP16AD”; SEQ ID NO: 6) and placed under the control of an elongation factor-1α promoter (“EF-1α”; SEQ ID NO: 7). Five consensus GAL4 response element binding sites (“5XGAL4RE”; comprising 5 copies of a GAL4RE comprising SEQ ID NO: 8) were fused to a synthetic TATA minimal promoter (SEQ ID NO: 9) and placed upstream of the luciferase reporter gene (SEQ ID NO: 10).
CHO cells were transiently transfected with transcription cassettes for GAL4 DBD (1-147) CJEcR(DEF) and for VP16AD βRXREF-LmUSPEF controlled by ubiquitously active cellular promoters (PGK and EF-la, respectively) on a single plasmid. Stably transfected cells were selected by Zeocin resistance. Individually isolated CHO cell clones were transiently transfected with a GAL4 RE-luciferase reporter (pFR Luc). 27-63 clone was selected using Hygromycin.
Cells were trypsinized and diluted to a concentration of 2.5×10^4 cells mL. 100 μL of cell suspension was placed in each well of a 96 well plate and incubated at 37° C. under 5% CO2 for 24 h. Ligand stock solutions were prepared in DMSO and diluted 300 fold for all treatments. Dose response testing consisted of 8 concentrations ranging from […] to 0.01 μM.
Luciferase reporter gene expression was measured 48 h after cell treatment using Bright-Glo™ Luciferase Assay System from Promega (E2650). Luminescence was detected at room temperature using a Dynex MLX microtiter plate luminometer.
Each assay was conducted in two separate wells, and the two values were averaged. Fold inductions were calculated by dividing relative light units (“RLU”) in ligand treated cells with RLU in DMSO treated cells. EC50s were calculated from dose response data using a three-parameter logistic model.

[1] = read-out: 27-63 assay EC50, CHO 27-63 stable cell line, luciferase reporter, average of two wells

SMILES | Fold Induction, 27-63 Assay, 3.3 uM (average of two wells) | Fold Induction, 27-63 Assay, 33 uM (average of two wells) | 27-63 assay Rel Max FI | pEC50 [1] | pEC50 | fold induction at 33 µM
CCc1ccc(C(=O)NN(C(=O)c2cc(OC)c(C)c(OC)c2)C(c2ccccc2)C(C)(C)C)cc1 (racemic) [RG-115847] | 2729 | 848 | 1.120 | 5.96 | – | –
COc1cccc(C(=O)NN(C(=O)c2ccc(C(F)(F)F)nc2OC)C(C)(C)C)c1C [RG-115834] | 1900 | 1837 | 0.733 | 5.93 | – | –
COc1cccc(C(=O)NN(C(=O)c2ccc(C(F)(F)F)n(C)c2=O)C(C)(C)C)c1C [RG-115835] | 3 | 1895 | 0.731 | 4.70 | – | –
CCc1ccc(C(=O)NN(C(=O)c2cc(C)cc(C)c2)C(CC)C(C)(C)C)cc1 (centres unmarked) [RG-115836] | 1822 | 823 | 0.808 | 7.01 | – | –
CCc1ccc(C(=O)NN(C(=O)c2cccnc2OC)C(CC)C(C)(C)C)cc1 (centres unmarked) [RG-115837] | 1474 | 1156 | 0.569 | 5.95 | – | –
CCCCC(N(NC(=O)c1ccc(CC)cc1)C(=O)c1cc(C)cc(C)c1)C(C)(C)C (centres unmarked) [RG-115840] | 1612 | 263 | 0.776 | 6.96 | – | –
CCCCC(N(NC(=O)c1ccc(CC)cc1)C(=O)c1cc(OC)c(C)c(OC)c1)C(C)(C)C (centres unmarked) [RG-115841] | 1407 | 437 | 0.610 | 5.70 | – | –
CCCCC(N(NC(=O)c1ccc(CC)cc1)C(=O)c1cccnc1OC)C(C)(C)C (centres unmarked) [RG-115842] | 1269 | 447 | 0.524 | 5.92 | – | –
CCc1ccc(C(=O)NN(C(=O)c2cc(C)cc(C)c2)C(c2ccccc2)C(C)(C)C)cc1 (centres unmarked) [RG-115846] | 1643 | 645 | 0.846 | 7.02 | – | –
CCc1ccc(C(=O)NN(C(=O)c2cccnc2OC)C(c2ccccc2)C(C)(C)C)cc1 (centres unmarked) [RG-115848] | 1346 | 1156 | 0.494 | 5.89 | – | –
COc1cc(C(=O)N(NC(=O)c2cccc(OC)c2C)C(C)(C)C)nc(OC)n1 [RG-115849] | 1 | 231 | 0.007 | < 4.48 | – | –
COc1cc(C(=O)N(NC(=O)c2cccc(OC)c2C)C(C)(C)C)c(OC)nn1 [RG-115850] | 1 | 23 | 0.001 | < 4.48 | – | –
CCCCC(N(NC(=O)c1cccc(OC)c1C)C(=O)c1cc(C)cc(C)c1)C(C)(C)C (centres unmarked) [RG-115851, 3,5-dimethyl-benzoic acid N-(1-tert-butyl-pentyl)-N′-(3-methoxy-2-methyl-benzoyl)-hydrazide] | – | – | 1 | – | 7.70 | –
CCCCC(N(NC(=O)c1cccc(OC)c1C)C(=O)c1cc(OC)c(C)c(OC)c1)C(C)(C)C (centres unmarked) [RG-115852, 3,5-dimethoxy-4-methyl-benzoic acid N-(1-tert-butyl-pentyl)-N′-(3-methoxy-2-methyl-benzoyl)-hydrazide] | – | – | 1 | – | 7.15 | –
CCc1c(C(=O)NN(C(=O)c2cc(OC)c(C)c(OC)c2)C(CC)C(C)(C)C)ccc2c1OCCO2 (centres unmarked) [RG-115859, 3,5-Dimethoxy-4-methyl-benzoic acid N′-(5-ethyl-2,3-dihydro-benzo[1,4]dioxine-6-carbonyl)-N-(1-ethyl-2,2-dimethyl-propyl)-hydrazide] | – | – | 1.218 | – | 8.15 | 1060
COc1cccc(C(=O)NN(C(=O)c2cc(Cl)nnc2Cl)C(C)(C)C)c1C [RG-115861] | 8 | 593 | 0.215 | 5.37 | – | –
COc1cccc(C(=O)NN(C(=O)c2ccnnc2)C(C)(C)C)c1C [RG-115862] | 1 | 243 | 0.048 | < 4.48 | – | –
COc1cc(C(=O)N(NC(=O)c2cccc(OC)c2C)C(C)(C)C)c(=O)[nH]n1 [RG-115863] | 1 | 804 | 0.154 | < 4.48 | – | –
CCCC(N(NC(=O)c1ccc2c(c1C)OCCO2)C(=O)c1cc(OC)c(C)c(OC)c1)C(C)(C)C (centres unmarked) [RG-115865, 3,5-Dimethoxy-4-methyl-benzoic acid N-(1-tert-butyl-butyl)-N′-(5-methyl-2,3-dihydrobenzo[1,4]dioxine-6-carbonyl)-hydrazide] | – | – | 1.246 | – | 8.00 | 76
CCCC(N(NC(=O)c1ccc2c(c1CC)OCCO2)C(=O)c1cc(C)cc(C)c1)C(C)(C)C (centres unmarked) [RG-115866, 3,5-Dimethyl-benzoic acid N-(1-tert-butyl-butyl)-N′-(5-ethyl-2,3-dihydro-benzo[1,4]dioxine-6-carbonyl)-hydrazide] | – | – | 0.999 | – | 8.00 | 3
CCCC(N(NC(=O)c1ccc2c(c1CC)OCCO2)C(=O)c1cc(OC)c(C)c(OC)c1)C(C)(C)C (centres unmarked) [RG-115867, 3,5-Dimethoxy-4-methyl-benzoic acid N-(1-tert-butyl-butyl)-N′-(5-ethyl-2,3-dihydro-benzo[1,4]dioxine-6-carbonyl)-hydrazide] | – | – | – | – | – | 654
